Laboratory results reported in ChEMBL document CHEMBL5338805, “Discovery of the First Subnanomolar PPARα/δ Dual Agonist for the Treatment of Cholestatic Liver Diseases” (J Med Chem, 2023).
Active and inactive are the calls of the source. No cut-off for these calls is given here.

Tests used:
[1] = Mutagenicity in Salmonella typhimurium TA98 measured at 0.21 to 16.67 mg/ml for 72 hrs by mini-Ames test; type: toxicity; details: salmonella enterica subsp. enterica serovar typhimurium, dose 0.21-16.67 mg/ml
[2] = target: Nuclear receptor ROR-gamma (Homo sapiens) (UniProt P51449); assay: Agonist activity at RORgamma (unknown origin) transfected in african green monkey COS7 cells assessed transactivation incubated at 1 uM for 16 hrs by luciferase assay; type: cell-based
[3] = Anti-cholestatic activity in ANIT-induced C57BL/6Nifdc mouse model assessed as downregulation of proinflammatory Il6 gene at 0.03 to 0.1 mg/kg, po upto 42 hrs measured after 48 hrs; type: ADME, organism-based; details: in vivo, 90 h, dose 0.03-0.1 mg/kg
[4] = Down-streaming of Cyp27a1 gene expression in C57BL/6JNifdc mouse liver assessed as hepatic resorption of bile acid administered at 0.03 to 0.1 mg/kg, po for 3 days measured after 6 hrs of last administration by real-time PCR analysis; type: ADME, organism-based; details: in vivo, 78 h, dose 0.03-0.1 mg/kg, time 3.25 day
[5] = Anti-cholestatic activity in ANIT-induced C57BL/6Nifdc mouse model assessed as downregulation of proinflammatory Nos2 gene at 0.03 to 0.1 mg/kg, po upto 42 hrs measured after 48 hrs; type: ADME, organism-based; details: in vivo, 90 h, dose 0.03-0.1 mg/kg
[6] = target: Peroxisome proliferator-activated receptor delta (Homo sapiens) (UniProt Q03181); details: filed as agonist, dose 0.625-10 µM
Description: Binding affinity to PPARdelta LBD (unknown origin) assessed as thermal stability by measuring change in melting temperature by thermal shift assay

[7] = Anti-cholestatic activity in ANIT-induced C57BL/6Nifdc mouse model assessed as decrease in liver beta-MCA at 0.03 to 0.1 mg/kg, po upto 42 hrs measured after 48 hrs; type: ADME, organism-based; details: in vivo, 90 h, dose 0.03-0.1 mg/kg
[8] = target: Thyroid hormone receptor beta (Homo sapiens) (UniProt P10828); assay: Agonist activity at THRbeta (unknown origin) transfected in african green monkey COS7 cells assessed transactivation incubated at 1 uM for 16 hrs by luciferase assay; type: cell-based
[9] = target: Retinoic acid receptor RXR-gamma (Homo sapiens) (UniProt P48443); assay: Agonist activity at RXRgamma (unknown origin) transfected in african green monkey COS7 cells assessed transactivation incubated at 1 uM for 16 hrs by luciferase assay; type: cell-based
[10] = target: Retinoic acid receptor alpha (Homo sapiens) (UniProt P10276); assay: Agonist activity at RARalpha (unknown origin) transfected in african green monkey COS7 cells assessed transactivation incubated at 1 uM for 16 hrs by luciferase assay; type: cell-based
[11] = Anti-cholestatic activity in ANIT-induced C57BL/6Nifdc mouse model assessed as decrease in serum total bilirubin level at 0.03 to 0.1 mg/kg, po upto 42 hrs measured after 48 hrs; type: ADME, organism-based; details: in vivo, 90 h, dose 0.03-0.1 mg/kg
[12] = Anti-cholestatic activity in ANIT-induced C57BL/6Nifdc mouse model assessed as decrease in phosphorylated p65 level at 0.03 to 0.1 mg/kg, po upto 42 hrs measured after 48 hrs by Western blot analysis; type: ADME, organism-based; details: in vivo, 90 h, dose 0.03-0.1 mg/kg
[13] = Anti-cholestatic activity in ANIT-induced C57BL/6Nifdc mouse model assessed as decrease in liver TBA at 0.03 to 0.1 mg/kg, po upto 42 hrs measured after 48 hrs; type: ADME, organism-based; details: in vivo, 90 h, dose 0.03-0.1 mg/kg
COS-7 = assay: Cytotoxicity against african green monkey COS7 cells incubated upto 100 uM for 24 hrs by CCK8 assay; type: toxicity, cell-based; details: chlorocebus aethiops, cos-7, 24 h
HEK293 = assay: Cytotoxicity against HEK293 cells incubated upto 100 uM for 24 hrs by CCK8 assay; type: toxicity, cell-based; details: human, hek293, 24 h
[14] = In vivo upregulation of PPAR alpha in C57BL/6JNifdc mouse liver administered at 0.03 mg/kg, po for 3 days measured after 6 hrs of last administration by real-time PCR analysis; type: ADME, organism-based; details: 78 h, time 3.25 day
[15] = Anti-cholestatic activity in ANIT-induced C57BL/6Nifdc mouse model assessed as decrease in liver TCA at 0.03 to 0.1 mg/kg, po upto 42 hrs measured after 48 hrs; type: ADME, organism-based; details: in vivo, 90 h, dose 0.03-0.1 mg/kg
[16] = Anti-cholestatic activity in ANIT-induced C57BL/6Nifdc mouse model assessed as decrease in liver T-MCA at 0.03 to 0.1 mg/kg, po upto 42 hrs measured after 48 hrs; type: ADME, organism-based; details: in vivo, 90 h, dose 0.03-0.1 mg/kg
[17] = Anti-cholestatic activity in ANIT-induced C57BL/6Nifdc mouse model assessed as downregulation of proinflammatory Tnf gene at 0.03 to 0.1 mg/kg, po upto 42 hrs measured after 48 hrs; type: ADME, organism-based; details: in vivo, 90 h, dose 0.03-0.1 mg/kg
[18] = target: Retinoic acid receptor RXR-beta (Homo sapiens) (UniProt P28702); assay: Agonist activity at RXRbeta (unknown origin) transfected in african green monkey COS7 cells assessed transactivation incubated at 1 uM for 16 hrs by luciferase assay; type: cell-based
[19] = target: Voltage-gated inwardly rectifying potassium channel KCNH2 (Homo sapiens, UniProt Q12809); assay: Inhibition of human ERG by whole cell patch clamp method; type: toxicity
[20] = Anti-fibrosis activity in Ccl4-induced C57BL/6Nifdc mouse model assessed as decrease in hydroxyproline in liver administered orally for 3 weeks; type: ADME; details: in vivo, po, 504 h, dose 0.03-0.1 mg/kg
[21] = Stability in human liver microsome assessed as intrinsic clearance at 1 uM for 0 to 45 mins by LC/MS-8050 analysis; type: ADME; details: liver microsomes, time 0-45 min, read-out: CLH
[22] = Anti-cholestatic activity in ANIT-induced C57BL/6Nifdc mouse model assessed as decrease in liver GCA at 0.03 to 0.1 mg/kg, po upto 42 hrs measured after 48 hrs; type: ADME, organism-based; details: in vivo, 90 h, dose 0.03-0.1 mg/kg
[23] = In vivo upregulation of PPAR alpha in C57BL/6JNifdc mouse liver administered orally for 3 days measured after 6 hrs of last administration by real-time PCR analysis; type: ADME, organism-based; details: po, 78 h, dose 0.03-0.1 mg/kg, time 3.25 day
[24] = Acute toxicity in mouse assessed as lethal dose administered orally for 14 days; details: in vivo, po, 336 h, time 14 day
[25] = Anti-cholestatic activity in ANIT-induced C57BL/6Nifdc mouse model assessed as decrease in total p65 level at 0.03 to 0.1 mg/kg, po upto 42 hrs measured after 48 hrs by Western blot analysis; type: ADME, organism-based; details: in vivo, 90 h, dose 0.03-0.1 mg/kg
[26] = Anti-fibrosis activity in Ccl4-induced C57BL/6Nifdc mouse model assessed as decrease in serum triglyceride level administered at 0.03 to 0.1 mg/kg,po for 3 weeks; type: ADME, organism-based; details: in vivo, 504 h, dose 0.03-0.1 mg/kg
[27] = target: Bile acid receptor (Homo sapiens) (UniProt Q96RI1); assay: Agonist activity at FXR (unknown origin) transfected in african green monkey COS7 cells assessed transactivation incubated at 1 uM for 16 hrs by luciferase assay; type: cell-based
[28] = Anti-cholestatic activity in ANIT-induced C57BL/6Nifdc mouse model assessed as decrease in liver UCA at 0.03 to 0.1 mg/kg, po upto 42 hrs measured after 48 hrs; type: ADME, organism-based; details: in vivo, 90 h, dose 0.03-0.1 mg/kg
[29] = target: Retinoic acid receptor gamma (Homo sapiens) (UniProt P13631); assay: Agonist activity at RARgamma (unknown origin) transfected in african green monkey COS7 cells assessed transactivation incubated at 1 uM for 16 hrs by luciferase assay; type: cell-based
[30] = target: Oxysterols receptor LXR-alpha (Homo sapiens) (UniProt Q13133); assay: Agonist activity at LXRalpha (unknown origin) transfected in african green monkey COS7 cells assessed transactivation incubated at 1 uM for 16 hrs by luciferase assay; type: cell-based
Sequence of Oxysterols receptor LXR-alpha (Homo sapiens) (Q13133 whole entry): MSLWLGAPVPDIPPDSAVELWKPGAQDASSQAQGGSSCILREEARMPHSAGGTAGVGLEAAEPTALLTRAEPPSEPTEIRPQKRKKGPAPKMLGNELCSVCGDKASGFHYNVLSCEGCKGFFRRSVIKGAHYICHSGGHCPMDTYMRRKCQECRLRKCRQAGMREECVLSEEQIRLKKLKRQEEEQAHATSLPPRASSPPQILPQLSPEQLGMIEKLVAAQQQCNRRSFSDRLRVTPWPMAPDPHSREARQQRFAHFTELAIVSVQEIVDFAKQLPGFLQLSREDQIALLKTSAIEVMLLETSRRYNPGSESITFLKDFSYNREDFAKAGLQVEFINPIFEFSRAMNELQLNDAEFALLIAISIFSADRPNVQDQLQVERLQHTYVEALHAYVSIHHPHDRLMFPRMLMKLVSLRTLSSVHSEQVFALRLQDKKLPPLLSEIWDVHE

Sequence of Retinoic acid receptor alpha (Homo sapiens) (P10276 whole entry): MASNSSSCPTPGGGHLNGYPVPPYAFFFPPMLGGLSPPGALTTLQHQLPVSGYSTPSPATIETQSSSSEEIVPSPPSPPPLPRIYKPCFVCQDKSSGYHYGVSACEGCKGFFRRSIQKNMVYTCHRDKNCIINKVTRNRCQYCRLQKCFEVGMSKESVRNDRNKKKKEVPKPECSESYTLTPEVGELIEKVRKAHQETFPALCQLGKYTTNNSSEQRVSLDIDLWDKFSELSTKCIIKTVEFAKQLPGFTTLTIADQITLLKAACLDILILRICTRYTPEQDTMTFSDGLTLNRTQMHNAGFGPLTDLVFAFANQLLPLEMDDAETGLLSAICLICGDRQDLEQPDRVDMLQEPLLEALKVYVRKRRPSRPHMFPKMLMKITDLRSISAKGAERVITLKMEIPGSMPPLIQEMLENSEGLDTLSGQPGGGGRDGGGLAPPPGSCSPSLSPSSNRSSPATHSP
Sequence of Peroxisome proliferator-activated receptor delta (Homo sapiens) (Q03181 whole entry): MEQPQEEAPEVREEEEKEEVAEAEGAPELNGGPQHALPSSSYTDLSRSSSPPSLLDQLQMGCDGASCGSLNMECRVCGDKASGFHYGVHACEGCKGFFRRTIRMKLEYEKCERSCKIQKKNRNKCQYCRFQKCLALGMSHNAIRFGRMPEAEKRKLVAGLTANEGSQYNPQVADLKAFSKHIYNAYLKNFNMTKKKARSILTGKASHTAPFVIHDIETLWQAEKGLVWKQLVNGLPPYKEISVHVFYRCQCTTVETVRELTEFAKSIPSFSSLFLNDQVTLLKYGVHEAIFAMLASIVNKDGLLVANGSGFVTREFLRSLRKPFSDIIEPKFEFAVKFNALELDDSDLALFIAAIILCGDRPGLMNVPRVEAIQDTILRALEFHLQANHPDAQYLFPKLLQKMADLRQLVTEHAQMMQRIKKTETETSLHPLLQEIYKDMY
Sequence of Retinoic acid receptor RXR-beta (Homo sapiens) (P28702 whole entry): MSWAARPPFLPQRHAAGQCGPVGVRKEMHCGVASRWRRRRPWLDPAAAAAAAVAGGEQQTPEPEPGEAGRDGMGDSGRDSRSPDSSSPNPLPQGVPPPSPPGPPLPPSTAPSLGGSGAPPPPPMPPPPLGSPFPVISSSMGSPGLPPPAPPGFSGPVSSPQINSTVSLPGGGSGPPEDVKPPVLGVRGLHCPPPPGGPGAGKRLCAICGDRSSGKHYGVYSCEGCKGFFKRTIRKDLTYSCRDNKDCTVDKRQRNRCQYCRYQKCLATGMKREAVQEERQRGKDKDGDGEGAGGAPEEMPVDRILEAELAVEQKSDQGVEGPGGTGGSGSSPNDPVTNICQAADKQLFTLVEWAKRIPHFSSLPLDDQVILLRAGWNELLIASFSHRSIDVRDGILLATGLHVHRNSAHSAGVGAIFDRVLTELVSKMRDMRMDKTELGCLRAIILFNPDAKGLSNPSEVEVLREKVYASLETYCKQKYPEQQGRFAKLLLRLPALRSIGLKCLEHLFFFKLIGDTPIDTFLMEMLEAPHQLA
Sequence of Voltage-gated inwardly rectifying potassium channel KCNH2 (Q12809 whole entry): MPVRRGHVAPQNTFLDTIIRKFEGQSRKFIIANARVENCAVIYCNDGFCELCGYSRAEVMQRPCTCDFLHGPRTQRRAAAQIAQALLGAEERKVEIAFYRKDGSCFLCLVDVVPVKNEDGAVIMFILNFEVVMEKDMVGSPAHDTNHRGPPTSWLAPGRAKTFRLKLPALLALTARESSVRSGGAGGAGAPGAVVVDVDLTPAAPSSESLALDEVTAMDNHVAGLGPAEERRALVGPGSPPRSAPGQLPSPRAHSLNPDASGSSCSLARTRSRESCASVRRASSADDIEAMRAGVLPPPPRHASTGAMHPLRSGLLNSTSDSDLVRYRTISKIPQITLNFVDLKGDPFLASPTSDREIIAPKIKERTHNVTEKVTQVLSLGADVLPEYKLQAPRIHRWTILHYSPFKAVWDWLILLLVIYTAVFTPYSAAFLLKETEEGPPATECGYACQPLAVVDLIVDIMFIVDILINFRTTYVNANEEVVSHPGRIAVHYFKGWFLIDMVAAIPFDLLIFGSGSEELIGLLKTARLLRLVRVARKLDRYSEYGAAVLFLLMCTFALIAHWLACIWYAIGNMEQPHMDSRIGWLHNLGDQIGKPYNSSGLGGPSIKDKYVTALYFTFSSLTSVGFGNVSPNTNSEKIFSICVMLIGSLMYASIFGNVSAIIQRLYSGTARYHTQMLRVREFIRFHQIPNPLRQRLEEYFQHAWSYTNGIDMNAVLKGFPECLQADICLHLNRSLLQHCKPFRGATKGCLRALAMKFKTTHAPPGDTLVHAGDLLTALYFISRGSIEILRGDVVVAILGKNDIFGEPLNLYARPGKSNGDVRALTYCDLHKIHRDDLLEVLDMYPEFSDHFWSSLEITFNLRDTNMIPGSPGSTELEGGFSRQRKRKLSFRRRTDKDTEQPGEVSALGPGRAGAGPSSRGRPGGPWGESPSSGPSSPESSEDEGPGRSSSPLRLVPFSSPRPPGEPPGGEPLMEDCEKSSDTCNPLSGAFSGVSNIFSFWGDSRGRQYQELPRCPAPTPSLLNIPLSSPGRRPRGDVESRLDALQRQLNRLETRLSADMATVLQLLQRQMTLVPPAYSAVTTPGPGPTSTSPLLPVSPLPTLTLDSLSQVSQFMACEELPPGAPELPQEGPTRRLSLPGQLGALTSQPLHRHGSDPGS
Sequence of Nuclear receptor ROR-gamma (Homo sapiens) (P51449 whole entry): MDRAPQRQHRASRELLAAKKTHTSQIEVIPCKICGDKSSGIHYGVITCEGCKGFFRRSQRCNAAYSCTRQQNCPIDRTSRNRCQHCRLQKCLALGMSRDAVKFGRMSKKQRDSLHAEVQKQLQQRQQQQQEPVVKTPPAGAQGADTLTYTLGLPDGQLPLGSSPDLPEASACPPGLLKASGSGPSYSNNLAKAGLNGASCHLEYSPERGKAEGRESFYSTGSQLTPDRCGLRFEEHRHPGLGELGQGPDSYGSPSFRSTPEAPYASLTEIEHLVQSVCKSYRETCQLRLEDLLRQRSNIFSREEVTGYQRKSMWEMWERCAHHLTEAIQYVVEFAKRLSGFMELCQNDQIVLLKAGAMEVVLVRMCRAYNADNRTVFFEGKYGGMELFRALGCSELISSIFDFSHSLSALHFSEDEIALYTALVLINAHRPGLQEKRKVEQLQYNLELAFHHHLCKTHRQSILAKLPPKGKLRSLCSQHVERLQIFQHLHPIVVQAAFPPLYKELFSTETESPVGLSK
Sequence of Retinoic acid receptor RXR-gamma (Homo sapiens) (P48443 whole entry): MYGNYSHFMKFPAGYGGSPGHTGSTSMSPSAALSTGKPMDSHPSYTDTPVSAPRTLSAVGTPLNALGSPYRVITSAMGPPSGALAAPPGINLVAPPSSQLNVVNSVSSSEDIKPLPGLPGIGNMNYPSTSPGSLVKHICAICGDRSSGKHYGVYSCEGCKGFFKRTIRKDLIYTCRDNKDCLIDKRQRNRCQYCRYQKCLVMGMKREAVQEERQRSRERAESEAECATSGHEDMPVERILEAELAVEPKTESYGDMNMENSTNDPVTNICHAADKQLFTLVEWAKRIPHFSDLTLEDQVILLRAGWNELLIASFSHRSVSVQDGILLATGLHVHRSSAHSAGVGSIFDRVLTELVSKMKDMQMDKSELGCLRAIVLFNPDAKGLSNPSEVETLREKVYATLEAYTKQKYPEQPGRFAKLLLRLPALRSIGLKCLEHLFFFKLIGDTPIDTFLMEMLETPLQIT
Sequence of Thyroid hormone receptor beta (Homo sapiens) (P10828 whole entry): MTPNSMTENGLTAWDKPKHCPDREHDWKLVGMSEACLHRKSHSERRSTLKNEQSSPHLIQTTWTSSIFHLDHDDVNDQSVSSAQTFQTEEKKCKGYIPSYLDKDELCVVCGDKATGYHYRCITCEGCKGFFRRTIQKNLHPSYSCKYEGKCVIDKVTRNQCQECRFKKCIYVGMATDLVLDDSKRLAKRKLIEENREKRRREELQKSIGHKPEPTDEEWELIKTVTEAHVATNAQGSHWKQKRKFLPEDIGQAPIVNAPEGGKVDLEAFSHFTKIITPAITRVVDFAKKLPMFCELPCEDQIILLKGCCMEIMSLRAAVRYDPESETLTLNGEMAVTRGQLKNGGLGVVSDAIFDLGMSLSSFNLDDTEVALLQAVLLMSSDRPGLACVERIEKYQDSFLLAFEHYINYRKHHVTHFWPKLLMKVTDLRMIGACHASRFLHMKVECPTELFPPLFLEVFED
Sequence of Bile acid receptor (Homo sapiens) (Q96RI1 whole entry): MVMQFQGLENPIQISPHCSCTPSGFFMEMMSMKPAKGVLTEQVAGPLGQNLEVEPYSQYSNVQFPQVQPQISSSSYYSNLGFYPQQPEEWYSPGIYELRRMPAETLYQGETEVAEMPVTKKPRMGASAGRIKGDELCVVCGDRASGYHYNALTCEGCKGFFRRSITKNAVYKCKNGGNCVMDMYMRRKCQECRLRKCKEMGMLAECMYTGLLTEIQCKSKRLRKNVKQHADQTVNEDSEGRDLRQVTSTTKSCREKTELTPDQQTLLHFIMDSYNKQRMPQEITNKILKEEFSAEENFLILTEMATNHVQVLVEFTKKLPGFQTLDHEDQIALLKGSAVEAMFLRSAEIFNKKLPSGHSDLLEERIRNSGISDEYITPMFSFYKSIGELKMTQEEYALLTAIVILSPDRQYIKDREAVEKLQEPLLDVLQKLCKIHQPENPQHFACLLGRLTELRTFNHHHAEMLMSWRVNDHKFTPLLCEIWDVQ

For `Cc1cc(CN2C(=O)CN(c3ccc(C(F)(F)F)cc3)C2=O)cc(C)c1OC(C)(C)C(=O)O`, the Activity [1] was “Non-Toxic”, the Activity [2] was “inactive” and the Activity [3] was “Active”. The Activity [4] was “Active”, the Activity [5] was “Active” and the deltaTm [6] was “Dose-Dependent Effect”. For the same molecule, the Activity [7] was “Active”, the Activity [8] was “inactive” and the Activity [9] was “inactive”. For the same molecule, the Activity [10] was “inactive”, the Activity [11] was “Active” and the Activity [12] was “Active”. The Activity [13] was “Active”, the Activity (COS-7) was “Non-Toxic” and the Activity (HEK293) was “Non-Toxic”. For the same molecule, the Activity [14] was “Active”, the Activity [15] was “Active” and the Activity [16] was “Active”. The Activity [17] was “Active”, the Activity [18] was “inactive” and the IC50 [19] was > 30 µM. The Activity [20] was “Dose-Dependent Effect”, the CLint scaled at 1 µM [21] was 6.24 mL/min/kg and the Activity [22] was “Active”. The Activity [23] was “Dose-Dependent Effect”, the LD [24] was > 2 g/kg and the Activity [25] was “Active”. The Activity [26] was “Active”, the Activity [27] was “inactive” and the Activity [28] was “Active”. For the same molecule, the Activity [29] was “inactive” and the Activity [30] was “inactive”.
